Test results as given in US20230320999A1, “NON-THERAPEUTIC METHODS FOR ALLEVIATING OR REDUCING STRESS SYMPTOMS OF RUMINANTS” (DSM IP Assets B.V., priority 2018, published 2023).

Test system: rumen metabolites (Dimethylsulfone)
Assay: Rumen metabolites in rumen fluid of fistulated steers, quantified by NMR after 21 days of treatment
Type: in vivo, Brahman steers (Bos indicus)
Conditions: for Dimethylsulfone in rumen fluid: rumen fluid 3 h post feeding, days 20 and 21, 4 steers; for Change of the methyl donor (dimethylsulfone) in rumen fluid versus control period, in words: 21 days of treatment, Brahman steers
Source text: Eight fistulated Brahman steers (Bos indicus) were randomly allocated to two groups (4 animals per group) and received a forage ad libitum diet (Rhode grass hay (Chloris […]), chemical composition: DM, 917 g/kg fresh matter; in g/kg of DM: OM, 806; CP, 169; NDF, 661; ADF, 359; ADL, 46; ash, 116 and GE 17.38 MJ/kg). […] Animals were adapted to the diet over a 21 d period. After that initial period, experimental animals were placed into individual pens in an animal house for the measurement of intakes (10 d) and were treated with cyclodextrin (2 g/100 kg LW) and molasses (60 mL/d). On the last 2 days animals were placed into open-circuit respiration chambers for collection of rumen samples. […] On days 20 and 21 of treatment both groups were placed in open-circuit respiration chambers for rumen fluid collection. Rumen fluid samples (approx. 60 mL per animal) were collected using a probe with 2 layers of cheesecloth through the cannula of the animal at 3 h post feeding, during confinement in respiration chambers to determine rumen metabolites.

SMILES	Dimethylsulfone in rumen fluid (2.5 g propanediol mononitrate/animal/day for 21 days, control period value 20)	Change of the methyl donor (dimethylsulfone) in rumen fluid versus control period, in words	Dimethylsulfone in rumen fluid (1.6 g chloroform-CD/100 kg LW for 21 days, control period value 21)
O=[N+]([O-])OCCCO [PDMN, 1,3-propanediol mononitrate]	113 μmol/L rumen fluid	statistically significant increase	
ClC(Cl)Cl [Chloroform, chloroform]		statistically significant increase	80 μmol/L rumen fluid
